Earlier results as cited in patent US20240174947A1, “SURFACTANT COMPOSITIONS” (LANKEM LTD., priority 2021, published 2024).

System: reconstructed human epidermis (RhE)
Settings: for ET50: typical reference ET50 irritancy results for commonly used anionic and amphoteric surfactants; for Classification (expected in vivo irritancy): typical reference results for commonly used anionic and amphoteric surfactants, assigned from ET50

Compound | ET50 [h] | Classification (expected in vivo irritancy)
CCCCCCCCCCCCOS(=O)(=O)[O-].[Na+] [Sodium lauryl sulfate] | 9.37 | Moderate to mild (4-12)
Cocamidopropyl betaine | 29.4 | Non-irritating (>24)
Sodium laureth sulfate | 10.25 | Moderate to mild (4-12)
